Where two headings read alike, the source gives them in different places.
How the values were obtained:
[1] = tested on: Ba/F-FLT3-ITD F691I cells; details: 48 hours; PKC412 10 nM alone; two-drug combinations at indicated concentrations
Method: (§3) Cell proliferation was measured by a [^3H]-thymidine incorporation assay (see FIG. 6C).

[2] = tested on: K562 cells; experiment: [3H]-thymidine proliferation assay, K562 cells; type: cell-based, human; details: rapamycin alone, 5 nM; 60 hours
[3] = tested on: Erk1/2 kinases; details: 18 hours; indicated concentrations
Method: (§1) Cells were lysed in a buffer containing Tris-HCl (50 mM, pH 8.0), NaCl (150 mM), NP40 (1% v/v), NaF (10 mM), 2 mM sodium orthovanadate and a cocktail of protease inhibitors, as described previously (Gu et al., Mol. Cell. Biol. 20:7109 (2000)). Cell lysates containing equivalent amounts of protein ([…]) were loaded and separated by SDS-PAGE. Immunoblotting was performed using phospho-specific antibodies reactive with Thr389 of p70 S6K, Ser65 of 4E-BP1 or Thr202/Tyr204 of p44/42 Erk (Cell Signaling Technology, Beverly, Ma.). Detection was by enhanced chemiluminescence (ECL). To control for equal loading, blots were reprobed with antibodies that detect total Erk2 or p70 S6K (Santa Cruz Biotechnology).
(§2) Cell lysates were prepared and equal amounts (50 μg) of protein were resolved by SDS-PAGE followed by immunoblot analysis with the indicated phospho-specific antibodies. To control for loading, the blots were stripped and reprobed with anti-Erk2 antibodies.

[4] = tested on: p70 S6K; details: rapamycin 0.5-5 nM; 18 hours
Method: as §1, §2

[5] = tested on: p70 S6K
Method: as §1, §2

[6] = tested on: 4E-BP1; details: Imatinib 0.5-4 μM or rapamycin 5 nM alone, or combined
Method: as §1

[7] = tested on: Erk1/2 kinases; details: 18 hours; indicated concentrations; remark: listed apart in the source
Method: as §1, §2

[8] = tested on: 4E-BP1; experiment: Immunoblot of 4E-BP1 phosphorylation in Ba/F-FLT3-ITD cells; type: cell-based
Method: as §1
The blots were reprobed for p70 S6 kinase and Erk2, respectively, to ensure equivalent loading.

[9] = tested on: PTEN-positive human prostate cancer cells (CWR22); experiment: Proliferation (cell number, hemocytometer) of CWR22 cells; type: cell-based; details: rapamycin at indicated concentrations alone or with Imatinib 2 μg/ml; 7 days
Method: PTEN-positive human prostate cancer cells (CWR22) were seeded at 30,000 cells per 6-well cluster (35 mm plate). […] Media was changed every 2 days with fresh drugs. After 7 days, cell number was determined by hemocytometer (see FIG. 9).

[10] = tested on: PTEN-negative human prostate cancer cells (LnCaP); experiment: Proliferation (cell number, hemocytometer) of LnCaP cells; type: cell-based; details: rapamycin at indicated concentrations alone or with Imatinib 2 μg/ml; 7 days
Method: PTEN-negative human prostate cancer cells (LnCaP) were seeded at 30,000 cells per 6-well cluster (35 mm plate). […] Media was changed every 2 days with fresh drugs. After 7 days, cell number was determined by hemocytometer (see FIG. 10).

[11] = tested on: murine BCR/ABL disease model; experiment: Survival in mouse model of CML (BCR/ABL bone marrow transplantation); type: in vivo, BALB/C mice
Method: BALB/C donor mice were primed with intraperitoneal injection of 5′ fluorouracil (150 mg/kg). After 5 days, bone marrow cells were collected and transduced with MSCV p210 (BCR/ABL)-IRES-GFP viruses by two rounds of spinfection. After second round of transduction, cells were resuspended in Hanks balanced salt solution and injected (1×10^6 cells/0.5 ml) into the lateral tail vein of lethally irradiated (2×450 cGy) female recipient BALB/C mice. […] All animals in the trial received two gavage treatments and one IP treatment per 24 hours. Treatment was started from day 9 after bone marrow transplantation (BMT) and continued until the mice died. The log rank statistics were used to attach a significance level to the difference in the survival curves.
These mice were censored from the statistical analysis of survival. Peripheral blood was collected from the retroorbital cavity using a heparinized glass capillary. Blood smears were stained with Wright and Giemsa. Manual and automated (ADIVA 120 Hematology system, Bayer) total and differential blood cell counts were performed, as well as histopathologic exam of relevant organs (spleen, liver, heart, lungs, intestine, hindlimb bones, and kidneys). […]

[12] = tested on: BCR/ABL-transformed primary B lymphoblasts; details: 24 hours; rapamycin 0.25-10 nM alone; Imatinib 0.25-4 μM alone or in combination with rapamycin 2 nM
[13] = tested on: Ba/F-BCR/ABL WT cells; details: rapamycin 5 nM; 48 hours of exposure
[14] = tested on: Ba/F-FLT3-ITD F691I cells
Method: as §3

[15] = tested on: BCR/ABL-transformed primary B-lymphoblast cells; details: 24 hours, Imatinib 1 μM, Rapamycin 10 nM; for % of viable cells in phase: G1 / % of viable cells in phase: G2/M / % of viable cells in phase: S / Total % Apoptotic: UO126 5 μM; for Total % Apoptotic: sub-G1 DNA content
Method: For cell cycle and apoptosis assays, live cells from randomly growing BCR/ABL-transformed B-lymphoblasts were isolated using Histopaque (Sigma). After washing twice, the cells were resuspended in regular growth medium (RPMI-containing 20% FCS and 50 μM 2-mercaptoethanol), exposed to inhibitors at the indicated concentrations for 24 hours, harvested and fixed in 70% ethanol, for 3 hours at −20 C. Fixed cells were stained with propidium iodide, and cell cycle parameters were analyzed by using FACScan and Modfit LT software.
3 million cells in media as described above and treated with the indicated drugs or left untreated for 24 hours, were fixed, stained with propidium iodide and subject to flow cytometry for cell cycle analysis.

[16] = achieved in transplant patients; cited from earlier work
[17] = tested on: Ba/F-BCR/ABL T315I cells; experiment: [3H]-thymidine proliferation assay, Imatinib-resistant Ba/F-BCR/ABL T315I cells; details: 48 hours
[18] = tested on: bone marrow cells transduced with BCR/ABL-expressing retroviruses; experiment: BCR/ABL-evoked myeloid colony formation assay; type: cell-based, mice; details: rapamycin 2 nM, Imatinib 0.5 μM, UO126 2 μM alone, or all three combined; 10 days

For CO[C@@H]1[C@H](N(C)C(=O)c2ccccc2)C[C@H]2O[C@]1(C)n1c3ccccc3c3c4c(c5c6ccccc6n2c5c31)C(=O)NC4 [PKC412], the “effect on cell proliferation” value [1] was “almost no effect”.

For Rapamycin, the “inhibition of [3H]-thymidine incorporation” value [2] was roughly 25%, the “inhibition of Erk activation” value [3] was “did not inhibit Erk activation” and the “inhibition of p70 S6K activation” value [4] was “almost completely inhibited activation of p70 S6K”. For the same compound, the “inhibition of p70 S6K phosphorylation” value ([5]; rapamycin 5 nM) was “totally inhibited p70 S6K phosphorylation”, the “inhibition of p70 S6K activation” value ([5]; rapamycin 0.5-5 nM, 18 hours) was “almost completely inhibited activation of p70 S6K” and the “inhibition of 4E-BP1 phosphorylation” value [6] was “partial inhibition of 4E-BP1phosphorylation”. For the same compound, the “inhibition of Erk activation” value [7] was “did not inhibit Erk activation”, the “resistance of 4E-BP1 phosphorylation to rapamycin relative to p70 S6K” value [8] was greater than 10 fold and the “inhibitory effect on proliferation of prostate cancer cells” value [9] was “significant inhibitory effect on proliferation”. For the same compound, the “inhibitory effect on proliferation of prostate cancer cells” value [10] was “significant inhibitory effect on proliferation”, the “survival versus double placebo, p (log rank)” value ([11]; Rapamycin 7.0 mg/kg/day intraperitoneal or Imatinib 70 mg/kg/day oral gavage, each plus placebo) was 0.04 and the survival ([11]; Rapamycin 7.0 mg/kg/day intraperitoneal, Imatinib 70 mg/kg/day oral gavage, from day 9 after BMT) was “survived longer than those treated with double placebo”. The “inhibition of cell proliferation ([3H]-thymidine incorporation)” value [12] was “inhibited the proliferation of these cells at doses significantly below typical serum levels”, the inhibition of proliferation [13] was roughly 60% and the inhibition [14] was 68%. For the same compound, the “% of viable cells in phase: G1” value [15] was 79.9%, the “% of viable cells in phase: G2/M” value [15] was 1.8% and the “% of viable cells in phase: S” value [15] was 18.3%. For the same compound, the “Total % Apoptotic” value [15] was 8.6%, the “effect on cell cycle and apoptosis” value ([15]; alone or combined) was “G1 arrest, but no significant apoptosis” and the typical serum levels [16] was 5 to 15 nM. For the same compound, the inhibition of proliferation ([17]; rapamycin 5 nM alone) was “about 70%”.

With N#CC(=C(/N)Sc1ccccc1N)/C(C#N)=C(/N)Sc1ccccc1N [UO126] the “inhibition of BCR/ABL-evoked myeloid colony formation” value [18] was 16%, the “% of viable cells in phase: G1” value [15] was 44.6% and the “% of viable cells in phase: G2/M” value [15] was 3.8%. For the same compound, the “% of viable cells in phase: S” value [15] was 51.6%, the “Total % Apoptotic” value [15] was 4.6% and the inhibition of proliferation ([17]; UO126 5 μM, Imatinib 0.5 μM, rapamycin 5 nM, alone or in combinations) was “only modest inhibitory effects”.

— patent US20060094674A1, “Combination of mtor inhibitor and a tyrosine kinase inhibitor for the treatment of neoplasms” (priority 2002, published 2006)
